Substitutions are numbered along the chain they refer to.
Key:
hCCR2b [1] = target: T1, hCCR2b (Homo sapiens, UniProt P41597); experiment: [3H]-CCR2-RA displacement assay, U2OS-CCR2 membranes; details: ratio of apparent Ki to Ki of compound 7
T1 sequence (P41597 1-360 isoform P41597-2): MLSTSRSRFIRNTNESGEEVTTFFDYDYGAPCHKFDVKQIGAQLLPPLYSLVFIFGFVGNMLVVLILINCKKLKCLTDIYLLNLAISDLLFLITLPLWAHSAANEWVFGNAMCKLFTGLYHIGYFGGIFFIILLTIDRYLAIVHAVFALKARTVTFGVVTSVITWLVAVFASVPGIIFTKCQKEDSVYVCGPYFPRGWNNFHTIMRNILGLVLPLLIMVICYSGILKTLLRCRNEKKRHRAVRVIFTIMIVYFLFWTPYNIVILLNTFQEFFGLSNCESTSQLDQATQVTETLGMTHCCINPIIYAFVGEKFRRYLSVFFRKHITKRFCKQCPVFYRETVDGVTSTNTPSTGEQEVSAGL

[2] = Stability under radioligand binding assay conditions; format: physicochemical
hCCR2b [3] = target: T1, hCCR2b; experiment: NanoBiT β-arrestin1 recruitment assay in live HEK293t cells; details: unwashed control vs [35S]GTPγS binding assay
[4] = target: T2, CCR2 triple mutant C70S/C75S/C232S (Homo sapiens, UniProt P41597, C232S/C70S/C75S); experiment: [3H]-CCR2-RA-[R] washout assay, CHO membranes, CCR2 triple mutant; details: 160 nM 14, four wash cycles
T2 sequence (P41597 1-360 isoform P41597-2 C70S/C75S/C232S): T1 sequence (P41597 1-360 isoform P41597-2) with C70S, C75S, C232S

Row | time compound remained intact in assay buffer ([2]; 25 μM, 50 mM Tris-HCl pH 7.4, 5 mM MgCl2, 0.1% CHAPS, room temperature, data not shown) | stability at higher concentration and temperature ([2]; 1 mM compound, 37 °C, over 4 h) | higher potency in β-arrestin recruitment than in [35S]GTPγS binding assay (hCCR2b [3]) | SMILES | loss/reduction of affinity compared to compound 7 (hCCR2b [1]) | [3H]-CCR2-RA-[R] binding after washout [4]
1 |  |  |  | O=C(NCCN=C=S)c1ccc(Oc2ccc(Cl)cc2NS(=O)(=O)c2ccc(Cl)c(C(F)(F)F)c2)cc1 [Compound 11, 4-(4-Chloro-2-((4-chloro-3-(trifluoromethyl)phenyl)sulfonamido)phenoxy)-N-(2-isothiocyanatoethyl)benzamide] | 5 fold | 
2 |  |  |  | O=C(NCCNC(=O)c1ccc(S(=O)(=O)F)cc1)c1ccc(Oc2ccc(Cl)cc2NS(=O)(=O)c2ccc(Cl)c(C(F)(F)F)c2)cc1 [Compound 13, 4-((2-(4-(4-Chloro-2-((4-chloro-3-(trifluoromethyl)phenyl)sulfonamido)phenoxy)benzamido)ethyl)carbamoyl)benzenesulfonyl Fluoride] | 15 fold | 
3 | over 6 h | gradual degradation | 8 fold | N#CSCCNC(=O)c1ccc(Oc2ccc(Cl)cc2NS(=O)(=O)c2ccc(Cl)c(C(F)(F)F)c2)cc1 [Compound 14, 4-(4-Chloro-2-((4-chloro-3-(trifluoromethyl)phenyl)sulfonamido)phenoxy)-N-(2-thiocyanatoethyl)benzamide] |  | recovered to levels comparable to compound 7
